{"source": "patent US20240287136A1", "about": "“PHARMACEUTICAL COMPOSITION AND THE USE THEREOF IN THE TREATMENT OF AUTOIMMUNE DISEASES” (Singapore Health Services Pte. Ltd., priority 2016, published 2024)", "key": {"[1]": {"test_system": "latent TGFβ binding protein 4 (LTBP-4) gene", "test": "Gene array analysis of PBMCs of trial patients", "format": "in vivo, human", "conditions": "SEQ ID NO: 1 responders (FIG. 14A)"}, "[2]": {"test_system": "PBMCs", "test": "TaqMan gene expression of regulatory molecules in PBMCs incubated in vitro with SEQ ID NO. 1", "format": "cell-based, human", "conditions": "T0 PBMCs incubated with 10 mg/ml SEQ ID NO. 1 for 48 hours", "procedure": "PBMCs from T0 were incubated in vitro with 10 mg/ml SEQ ID NO. 1 for 48 hours, and TaqMan was performed as described earlier. Data are expressed as 2(−dCT)×100 of GAPDH. PD-1, 0.3595+/−0.1033 vs 0.9310+/−0.1961, n=S, p0.0327 PD-L1, 0.1400+/−0.05308 vs 1.080+/−0.1926, n=6, p0.0005 CTLA-4, 0.2667+/−0.07313 vs 4.809+/−2.606, n=6, p0.0588 Foxp3, 0.2678+/−0.1267 vs 2.329+/−0.9527, n=6, p0.0422 P values were obtained by t-test."}, "[3]": {"test_system": "regulatory T cell (Treg) (CD4+CD25++CD127−)", "test": "Treg frequency in PBMC of trial patients by FACS", "format": "in vivo, human", "procedure": "(§1) FIG. 3. Effector and regulatory T cell function differ according to clinical response: a. effector T cells (Teff) (CD4+CD127+) at beginning of the trial (TO) and end of the study (Tend) were compared for PD-1 expression in both SEQ ID NO. 1 clinical responders and placebo clinical non-responders by FACS. b. FACS-sorted Teffwere analyzed for IL-17 and for RORC. Teff were stained intracellularly with IL-17A, and analyzed by FACS. c. regulatory T cell (Treg) (CD4+CD25++CD127−) frequency (% of PBMC) was determined in SEQ ID NO. 1—treated clinical responders by FACS. […] Values are the mean and s.e.m. d. Treg functionality in SEQ ID NO. […] (placebo clinical non-responders vs SEQ ID NO. 1 clinical responders, —76.21+/−3.665 vs 8.443+/−4.677, n=2 vs 3, t-test p0.0010). Values are the mean and s.e.m.\nIt is not detected in clinical responders a change in frequency of CD4+/CD25++/CD127-Treg between beginning and end of the trial (FIG. 3c). A highly significant difference between treatment responders and placebo non-responders was found in the suppressive ability of Treg at the end of the trial (FIG. 3d). This difference indicates a restoration of Treg functionality in clinical responders to treatment with SEQ ID NO. 1 (FIG. 3d and Sa).\nSuccessful treatment with SEQ ID NO: 1 therefore induced an immune deviation of Teff cells by reducing their ability to produce pro-inflammatory cytokines. […]"}, "[4]": {"test_system": "patients with early rheumatoid arthritis", "test": "Phase II trial of mucosal tolerization to SEQ ID NO. 1: clinical outcome", "format": "in vivo, human", "procedure": "The model employed here is based on the hypothesis that immune tolerization to a T-cell epitope, such as SEQ ID NO. 1 that may be a contributor of inflammation in patients with rheumatoid arthritis, may lead to detectable clinical improvement. A total of 96 patients with early rheumatoid arthritis, who were not allowed on Methotrexate or biologics, were tested with mucosal tolerization to SEQ ID NO. 1. Patients are defined as “responders” if they meet the response criteria at any time during the study. […] SEQ ID NO. […]"}, "[5]": {"test_system": "regulatory T cell (Treg) (CD4+CD25++CD127−)", "test": "Treg functionality: suppression of Teff proliferation (CFSE dilution)", "format": "in vivo, human", "conditions": "SEQ ID NO. 1 clinical responders at Tend, n=3; mean and s.e.m.; placebo clinical non-responders —76.21+/−3.665", "procedure": "as §1, with “p0.0010). […]” for “p0.0010). Values are the mean and s.e.m.”\nFIG. 5. […] Treg ability to suppress Teff proliferation was determined by CFSE dilution. […] T(x)=Probability binning. % PD-1+Treg is expressed as percentage of the total Treg population (insets in both panels). d. […] The average pSTAT5 expression per cell for anti-PD-1 treatment, as determined by the average integral density per unit area, was calculated using ImageJ (Rasband, W. S., ImageJ, http://rsb.info.nih.gov/ij/, 1997-2009). […] Total Treg, PD-1+Treg and PD-1− Treg from clinical responders (n=S) at Tend were sorted and RNA expression of CTLA-4, FoxP3, IL-10 and TGF-β was measured by TaqMan. Data are expressed as 2(−dCT)×100 of GAPDH. […]"}, "[6]": {"format": "in vitro ADME", "conditions": "without a linker; data not shown", "text": "This is synthetically of less interest to a person skilled in the art since it usually involves multiple-step synthesis for making the peptide. In the presence of the linker, the peptide SEQ ID No: 1 and the antirheumatic drug can be administered in equal proportion because the linker protects the peptide from degradation and thus enhance the stability of the peptide."}, "[7]": {"conditions": "placebo clinical non-responders"}}, "note": "Ends that are not written are not given here."}
{"substance": "QKRAAYDQYGHAAFE-NH2 [SEQ ID NO. 1]", "values": [{"measurement": "expression of latent TGFβ binding protein 4 (LTBP-4) gene in PBMCs", "setting": "[1]", "result": "marginal upregulation"}, {"measurement": "CTLA-4 gene expression in PBMCs", "setting": "[2]; clinical responders", "result": "4.809+/−2.606 2(−dCT)×100 of GAPDH"}, {"measurement": "Foxp3 gene expression in PBMCs", "setting": "[2]; clinical responders", "result": "2.329+/−0.9527 2(−dCT)×100 of GAPDH"}, {"measurement": "PD-1 gene expression in PBMCs", "setting": "[2]; clinical responders", "result": "0.9310+/−0.1961 2(−dCT)×100 of GAPDH"}, {"measurement": "PD-L1 gene expression in PBMCs", "setting": "[2]; clinical responders", "result": "1.080+/−0.1926 2(−dCT)×100 of GAPDH"}, {"measurement": "CTLA-4 gene expression in PBMCs", "setting": "[2]; [7]", "result": "0.2667+/−0.07313 2(−dCT)×100 of GAPDH"}, {"measurement": "Foxp3 gene expression in PBMCs", "setting": "[2]; [7]", "result": "0.2678+/−0.1267 2(−dCT)×100 of GAPDH"}, {"measurement": "PD-1 gene expression in PBMCs", "setting": "[2]; [7]", "result": "0.3595+/−0.1033 2(−dCT)×100 of GAPDH"}, {"measurement": "PD-L1 gene expression in PBMCs", "setting": "[2]; [7]", "result": "0.1400+/−0.05308 2(−dCT)×100 of GAPDH"}, {"measurement": "change of frequency of Tregs between beginning and end of the trial", "setting": "[3]; FIG. 9B", "result": "did not change"}, {"measurement": "Treg frequency in PBMC", "setting": "[3]; clinical responders, Tend, T0 7.773+/−1.432, n=4, mean and s.e.m.", "result": "7.610+/−1.519 % of PBMC"}, {"measurement": "safety of mucosal tolerization", "setting": "[4]; 96 patients with early rheumatoid arthritis", "result": "safe"}, {"measurement": "clinical efficacy", "setting": "[4]; 96 patients with early rheumatoid arthritis, no Methotrexate or biologics", "result": "comparable to the use of Methotrexate alone"}, {"measurement": "joint pain", "setting": "[4]; after treatment withdrawal (FIG. 11E)", "result": "Sustained improvements"}, {"measurement": "joint swelling", "setting": "[4]; after treatment withdrawal (FIG. 11F)", "result": "Sustained improvements"}, {"measurement": "Physician global assessment scores", "setting": "[4]; one month after clinical withdrawal, versus placebo (FIG. 11D)", "result": "performed better than placebo"}, {"measurement": "Treg functionality, % suppression of Teff proliferation", "setting": "[5]", "result": "8.443+/−4.677 % suppression"}, {"measurement": "stability of the peptide upon ingestion", "setting": "[6]", "result": "prone to degradation upon ingestion"}]}
